Assay results from ChEMBL document CHEMBL5346969 (J Med Chem, 2023).
pIC50, pKi: −log10 of the molar value. The source made the active and inactive calls. No cut-off for these calls is given here.

Key:
[1] = Toxicity in immunodeficient BALB/c mouse assessed as change in ALT level at 20 mg/kg, ip for 14 days by biochemical analysis; format: organism-based; settings: in vivo, 336 h, time 14 day
[2] = system: MDA-MB-231; assay: Antitumor activity against human MDA-MB-231 cells xenografted in immunodeficient BALB/c mouse assessed as tumor growth inhibition at 5 mg/kg,ip for 21 days consecutively every day; format: functional; settings: MDA-MB-231, 504 h, time 21 day, read-out: TGI
[3] = system: L02; assay: Cytotoxicity against human L02 cells assessed as inhibition of cell viability at 1 uM incubated for 72 hrs by MTT assay; format: toxicity, cell-based; settings: l02, 72 h
[4] = system: MDA-MB-231; assay: Inhibition of colony formation in human MDA-MB-231 cells at 5 to 20 nM incubated for 14 days by crystal violet staining based assay; format: functional, cell-based; settings: dose 5-20 nM, time 14.0 day
[5] = Toxicity in immunodeficient BALB/c mouse xenografted with human MDA-MB-231 cells assessed as morphological changes in spleen at 20 mg/kg, ip for 21 days by H and E staining based microscopy; format: organism-based; settings: in vivo, 504 h, time 21 day
[6] = Selectivity ratio, ratio of IC50 for Induction of ferroptosis in human MDA-MB-231 cells assessed as reduction in cell viability in presence of ferroptosis inhibitor, ferrostatin-1 to IC50 for antiproliferative activity against human MDA-MB-231 cells; format: functional
[7] = system: MDA-MB-231; assay: Induction of ferroptosis in human MDA-MB-231 cells assessed as cell viability at 1 uM incubated for 72 hrs in presence of N-acetyl-L-cysteine by MTT assay; format: functional, cell-based
[8] = Metabolic stability in human liver microsomes assessed as intrinsic clearance at 1 uM incubated upto 60 mins in presence of NADPH by LC-MS/MS analysis; format: ADME, Microsome; settings: read-out: CLH
[9] = system: MDA-MB-231; assay: Inhibition of colony formation in human MDA-MB-231 cells at 20 nM incubated for 14 days by crystal violet staining based assay; format: functional, cell-based; settings: time 14.0 day
[10] = system: MDA-MB-231; assay: Induction of ferroptosis in human MDA-MB-231 cells assessed as increase in intracellular lipid peroxidase by measuring MDA content at 5 to 20 nM incubated for 8 hrs by C11-BODIPY-581/591 staining based flow cytometry analysis; format: functional, cell-based; settings: dose 5-20 nM
[11] = system: MDA-MB-468; assay: Antiproliferative activity against human MDA-MB-468 cells assessed as inhibition of cell viability incubated for 72 hrs by CCK-8 assay; format: functional, cell-based; settings: MDA-MB-468, 72 h
[12] = target: T1, Phospholipid hydroperoxide glutathione peroxidase GPX4 (Homo sapiens) (UniProt P36969); assay: Inhibition of GPX4 (unknown origin) at 1 uM incubated for 1 hrs in presence of glutathione and glutathione reductase by microplate reader analysis
T1 sequence (whole entry): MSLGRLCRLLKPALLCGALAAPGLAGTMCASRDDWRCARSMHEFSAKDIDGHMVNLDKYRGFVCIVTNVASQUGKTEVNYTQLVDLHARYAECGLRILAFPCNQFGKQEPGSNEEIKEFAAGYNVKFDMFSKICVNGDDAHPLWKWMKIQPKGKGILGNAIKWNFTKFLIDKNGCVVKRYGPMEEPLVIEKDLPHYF

[13] = system: MDA-MB-231; assay: Induction of ferroptosis-mediated antitumor activity against human MDA-MB-231 cells xenografted in immunodeficient BALB/C mouse assessed as reduction in GPX4 level in tumor tissue at 5 to 20 mg/kg,ip for 21 days by Western blot analysis; format: functional, organism-based; settings: dose 5-20 mg/kg, time 21.0 day
[14] = system: MDA-MB-231; assay: Induction of ferroptosis in human MDA-MB-231 cells with assessed as decrease in intracellular GSH level at 20 nM incubated for 8 hrs by colorimetric assay; format: functional, cell-based
[15] = system: MDA-MB-231; assay: Induction of ferroptosis in human MDA-MB-231 cells assessed as increase in intracellular Fe2+ level at 5 to 20 nM incubated for 8 hrs by FerroOrange staining based confocal laser microscopy; format: functional, cell-based; settings: dose 5-20 nM
[16] = system: MDA-MB-231; assay: Induction of ferroptosis in human MDA-MB-231 cells with assessed as change in GPX4 mRNA expression level at 5 to 20 nM incubated for 8 hrs by qRT-PCR analysis; format: functional, cell-based; settings: dose 5-20 nM
[17] = Toxicity in immunodeficient BALB/c mouse xenografted with human MDA-MB-231 cells assessed as morphological changes in liver at 20 mg/kg, ip for 21 days by H and E staining based microscopy; format: organism-based; settings: in vivo, 504 h, time 21 day
[18] = Toxicity in immunodeficient BALB/c mouse assessed as change in CREA level at 20 mg/kg, ip for 14 days by biochemical analysis; format: organism-based; settings: in vivo, 336 h, time 14 day
[19] = target: T2, Phospholipid hydroperoxide glutathione peroxidase GPX4 (Homo sapiens, UniProt P36969); assay: Covalent inhibition of GPX4 (unknown origin) assessed as inhibition constant incubated for 30 to 90 mins in presence of glutathione, glutathione reductase and NADPH by microplate reader analysis
T2 sequence (P36969 whole entry): T1 sequence (whole entry)

[20] = system: MDA-MB-231; assay: Induction of ferroptosis in human MDA-MB-231 cells assessed as cell viability at 1 uM incubated for 72 hrs in presence of ferroptosis inhibitor, ferrostatin-1 by MTT assay; format: functional, cell-based
[21] = system: K562; assay: Antiproliferative activity against human K562 cells assessed as inhibition of cell viability at 1 uM incubated for 72 hrs by MTT assay; format: functional, cell-based
[22] = system: A549; assay: Antiproliferative activity against human A549 cells assessed as inhibition of cell viability at 1 uM incubated for 72 hrs by MTT assay; format: functional, cell-based
[23] = Toxicity in immunodeficient BALB/c mouse xenografted with human MDA-MB-231 cells assessed as body weight change at 5 to 20 mg/kg, ip for 21 days; format: organism-based; settings: in vivo, 504 h, dose 5-20 mg/kg, time 21 day
[24] = system: MDA-MB-231; assay: Induction of ferroptosis in human MDA-MB-231 cells with assessed as increase in ACSL4 protein expression level at 5 to 20 nM incubated for 8 hrs by Western blot analysis; format: functional, cell-based; settings: dose 5-20 nM
[25] = system: MDA-MB-231; assay: Induction of ferroptosis in human MDA-MB-231 cells assessed as cell viability at 1 uM incubated for 72 hrs in presence of apoptosis inhibitor, Z-VAD-FMK by MTT assay; format: functional, cell-based
[26] = system: MDA-MB-231; assay: Induction of ferroptosis in human MDA-MB-231 cells assessed as cell viability at 1 uM incubated for 72 hrs in presence of necrosis inhibitor, necrostatin-1 by MTT assay; format: functional, cell-based
[27] = system: MDA-MB-231; assay: Induction of ferroptosis-mediated morphological changes in human MDA-MB-231 cells assessed as ruptured mitochondria at 20 nM incubated for 6 hrs by TEM analysis; format: functional, cell-based
[28] = system: MDA-MB-231; assay: Induction of ferroptosis in human MDA-MB-231 cells assessed as increase in intracellular ROS accumulation by measuring green fluorescence intensity at 5 to 20 nM incubated for 8 hrs by DCFH-DA staining based confocal laser microscopy; format: functional, cell-based; settings: dose 5-20 nM
[29] = target: T2, Phospholipid hydroperoxide glutathione peroxidase GPX4; assay: Inhibition of GPX4 (unknown origin) incubated for 1 hrs in presence of glutathione and glutathione reductase by microplate reader analysis
[30] = system: MDA-MB-231; assay: Induction of ferroptosis in human MDA-MB-231 cells assessed as induction of lipid peroxidase accumulation at 5 to 20 nM incubated for 8 hrs by C11-BODIPY-581/591 staining based flow cytometry analysis; format: functional, cell-based; settings: dose 5-20 nM
[31] = Toxicity in immunodeficient BALB/c mouse xenografted with human MDA-MB-231 cells assessed as morphological changes in kidney at 20 mg/kg, ip for 21 days by H and E staining based microscopy; format: organism-based; settings: in vivo, 504 h, time 21 day

Which Activity [1] does the source give for COc1cc(N(C(=O)CBr)c2ccc3c(c2)OCCO3)cc(OC)c1F here?
The Activity was “Toxic”.

What about the inhibition in vivo at 5 mg/kg [2] of the same compound?
Its inhibition in vivo at 5 mg/kg is 18.9%.

What about the Activity [3] of the same compound?
Its Activity is “Non-Toxic”.

And the inhibition [4]?
The inhibition was “Dose-Dependent Effect”.

And the Activity [5]?
The Activity was “Non-Toxic”.

What about the “Ratio IC50” value [6] of the same compound?
The value was 218.8.

What about the Activity [7] of the same compound?
The Activity was “Active”.

And the microsomal CLint at 1 µM [8]?
The microsomal CLint at 1 µM was 1740 µL/min/mg.

And the inhibition [9]?
The inhibition was “Active”.

What about the Activity [10] of the same compound?
The Activity was “Dose-Dependent Effect”.

And the pIC50 [11]?
Its pIC50 is 7.92.

What about the inhibition [12] of the same compound?
The inhibition was 97.4%.

And the Activity [13]?
The Activity was “Active”.

And the Activity [14]?
Its Activity is “Active”.

What about the Activity [15] of the same compound?
The Activity was “Active”.

And the Activity [16]?
The Activity was “inactive”.

And the Activity [17]?
Its Activity is “Non-Toxic”.

What about the Activity [18] of the same compound?
The Activity was “Toxic”.

What about the pKi [19] of the same compound?
The pKi was 6.23.

What about the Activity [20] of the same compound?
Its Activity is “Active”.

And the Activity [21]?
Its Activity is “inactive”.

What about the Activity [22] of the same compound?
The Activity was “inactive”.

And the Activity [23]?
The Activity was “Non-Toxic”.

And the Activity [24]?
The Activity was “Active”.

What about the Activity [25] of the same compound?
The Activity was “inactive”.

And the Activity [26]?
Its Activity is “inactive”.

And the Activity [27]?
Its Activity is “Active”.

And the Activity [28]?
Its Activity is “Dose-Dependent Effect”.

And the pIC50 [29]?
The pIC50 was 6.89.

What about the Activity [30] of the same compound?
The Activity was “Dose-Dependent Effect”.

And the Activity [31]?
The Activity was “Non-Toxic”.

With COc1cc(N(C(=O)CCl)c2ccc3c(c2)OCCO3)cc(OC)c1F as the compound, how does the Activity [1] read?
The Activity was “Toxic”.

What about the inhibition in vivo at 5 mg/kg [2] of the same compound?
The inhibition in vivo at 5 mg/kg was 50.4%.

And the Activity [3]?
Its Activity is “Non-Toxic”.

And the inhibition [4]?
The inhibition was “Dose-Dependent Effect”.

What about the Activity [5] of the same compound?
Its Activity is “Non-Toxic”.

What about the “Ratio IC50” value [6] of the same compound?
The value was 249.5.

What about the Activity [7] of the same compound?
Its Activity is “Active”.

What about the microsomal CLint at 1 µM [8] of the same compound?
The microsomal CLint at 1 µM was 416 µL/min/mg.

What about the inhibition [9] of the same compound?
The inhibition was “Active”.

And the Activity [10]?
Its Activity is “Dose-Dependent Effect”.

And the pIC50 [11]?
Its pIC50 is 8.00.

And the inhibition [12]?
The inhibition was 98.8%.

What about the Activity [13] of the same compound?
Its Activity is “Active”.

And the Activity [14]?
Its Activity is “Active”.

And the Activity [15]?
Its Activity is “Active”.

What about the Activity [16] of the same compound?
The Activity was “inactive”.

What about the Activity [17] of the same compound?
Its Activity is “Non-Toxic”.

And the Activity [18]?
The Activity was “Toxic”.

And the pKi [19]?
The pKi was 6.20.

And the Activity [20]?
Its Activity is “Active”.

And the Activity [21]?
The Activity was “inactive”.

What about the Activity [22] of the same compound?
Its Activity is “inactive”.

What about the Activity [23] of the same compound?
The Activity was “Non-Toxic”.

What about the Activity [24] of the same compound?
Its Activity is “Active”.

And the Activity [25]?
Its Activity is “inactive”.

What about the Activity [26] of the same compound?
The Activity was “inactive”.

What about the Activity [27] of the same compound?
The Activity was “Active”.

And the Activity [28]?
Its Activity is “Dose-Dependent Effect”.

What about the pIC50 [29] of the same compound?
The pIC50 was 6.92.

What about the Activity [30] of the same compound?
The Activity was “Dose-Dependent Effect”.

What about the Activity [31] of the same compound?
The Activity was “Non-Toxic”.
